Source: patent publication US5738858A, “Skin care compositions containing fatty hydroxyethyl imidazoline surfactants and retinol or retinyl ester” (priority 1996, dated 1998)

What was measured:
[1] = system: keratinocyte differentiation (TGase 1); experiment: Transglutaminase (TGase 1) ELISA, keratinocyte differentiation (Example 4); type: cell-based, human; details: used alone; Table 4
Procedure: (§1) Human keratinocytes, isolated from neonatal foreskin by trypsin treatment were grown in Dulbecco Modification Eagle (DME) Hams F12 (1:1) medium/10% fetal calf serum in the presence of irradiated 3T3 mouse fibroblasts for establishing dividing keratinocyte colonies. Cells were grown under the above condition until their second passage and kept frozen for future use. Frozen second passage keratinocytes were thawed and plated into the above medium and grown for five days before they were switched to a serum-free MCDB 153-based medium keratinocyte growth medium (KGM) from Clonetics Corporation, San Diego, Calif., containing 0.15 mM Ca, or keratinocyte serum-free media (KSFM) from GIBCO containing 0.09 mM Ca). On day 7, when the cells were 80-90% confluent, they were trypsinized and plated in the serum-free medium for the various experiments.
During the process of terminal differentiation in the epidermis, a 15 nm thick layer of protein, known as the cornified envelope (CE) is formed on the inner surface of the cell periphery. The CE is composed of numerous distinct proteins which have been cross-linked together by the formation of N ^ε -(γ-glutamyl) lysine isodipeptide bonds catalyzed by the action of at least two different transglutaminases (TGases) expressed in the epidermis. TGase 1 is expressed in abundance in the differentiated layers of the epidermis, especially the granular layer, but is absent in the undifferentiated basal epidermis. […]
(§2) Keratinocytes (cultured as described above) were plated in 96 well plates at a density of 3,000 cells per well in 2000 μl of cell culture media. […] The absorbance of samples was read at 492 nm in the plate reader. […] Transglutaminase I levels were determined by subtracted background from the readings from each treatment and determining the mean s.d. for the replicates exposed to both antibodies.
(§3) The level of TGase-1 detected after treatment of the cells could be influenced by cell number, i.e., the greater the number of cells the greater the level of TGase-1 detected. […]

[2] = system: keratinocyte proliferation; experiment: 3H-Thymidine incorporation / keratinocyte proliferation (Example 1A); type: cell-based, human; details: […]10^-7 to […]10^-9 M; vs ethanol control and retinol treatments
[3] = system: keratinocyte differentiation (TGase 1); experiment: Transglutaminase (TGase 1) ELISA normalized to DNA, keratinocyte differentiation (Example 1B); type: cell-based, human; details: […]10^-7 to […]10^-9 M; vs ethanol control
Procedure: as §1, with “experiments. […]” for “experiments.”
as §2, with “200” for “2000”, “μl” for “μl of cell culture”, “TGase” for “Transglutaminase I”, “subtracting” for “subtracted”, “mean±s.d.” for “the mean s.d.”, “Ab.” for “antibodies.”
as §3

ARAT = experiment: In vitro microsomal esterification of retinol, ARAT catalyzed (retinyl palmitate formation); details: Table 2, 1 hour, 37° C.
Procedure: (§4) A solution containing 0.1M sodium phosphate pH 7 buffer, 5 mM dithiothreitol, 2 mg/ml bovine serum albumin, 40 micromolar palmitoyl CoA, 40 micromolar dilauroyl phosphatidyl choline, 10 micromolar retinol and a test compound or solvent blank, was incubated for 1 hour at 37° C. with a microsomal fraction isolated from bovine retinal pigment epithelial cells. After incubation, the reaction was quenched by addition of an equal volume of ethanol, and the retinyl esters formed (retinyl palmitate from the ARAT catalyzed reaction, and retinyl laurate from the LRAT catalyzed reaction) were extracted with hexane.

LRAT = biological target: T1, LRAT (Bos taurus, UniProt Q9BGL2); experiment: In vitro microsomal esterification of retinol, LRAT catalyzed (retinyl laurate formation); type: biochemical, bovine; details: Table 2, 1 hour, 37° C.
T1 construct: microsomal fraction isolated from bovine retinal pigment epithelial cells; from tissue; host or cells: microsomes of bovine retinal pigment epithelial cells (method cited: Saari and Bredberg, J. Biol. Chem. 1988)
T1 sequence (Q9BGL2 1-230): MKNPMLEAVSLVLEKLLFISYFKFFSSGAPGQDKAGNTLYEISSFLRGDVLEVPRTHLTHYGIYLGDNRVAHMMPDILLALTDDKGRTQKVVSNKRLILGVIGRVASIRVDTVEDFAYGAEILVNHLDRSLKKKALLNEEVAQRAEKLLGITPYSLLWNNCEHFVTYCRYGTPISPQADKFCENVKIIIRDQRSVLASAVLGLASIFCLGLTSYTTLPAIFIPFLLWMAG
Procedure: as §4

CC1=C(/C=C/C(C)=C/C=C/C(C)=C/C(=O)O)C(C)(C)CCC1 [RA, retinoic acid]
keratinocyte differentiation (in words) [1]: substantially decreased keratinocyte differentiation | keratinocyte proliferation (in words) [2]: significantly increased keratinocyte proliferation over both the ethanol control and each of the 2.5×10^-7 M, 2.5×10^-8 M and 2.5×10^-9 M retinol treatments and they did so in a dose dependant manner

CC1=C(/C=C/C(C)=C/C=C/C(C)=C/CO)C(C)(C)CCC1 [ROH, retinol]
keratinocyte differentiation (in words) [1]: did not affect keratinocyte differentiation when used alone | keratinocyte differentiation / transglutaminase level (in words) [3]: The decrease in transglutaminase level was dose dependent

CCCCCCCCCCCCCCCC(=O)OC/C=C(C)/C=C/C=C(C)/C=C/C1=C(C)CCCC1(C)C [RP, retinyl palmitate]
keratinocyte differentiation (in words) [1]: did not affect keratinocyte differentiation when used alone

Nc1ncnc2nc[nH]c12 [adenine]
% INHIB. ARAT (ARAT; 100 μM): 0%

O=C1C(N(CO)C(=O)NCO)N(CO)C(=O)N1CO (stereo not shown) [diazolidinyl urea]
% INHIB. LRAT (LRAT; 0 μM as printed): 0% | % INHIB. ARAT (ARAT; 0 μM as printed): 0%

CCCCCCCCCCCC(=O)N(C)CC(=O)O [lauroyl sarcosine]
% INHIB. ARAT (ARAT; 100 μM): 20%

CCCCCCCC/C=C\CCCCCCCC(=O)NCCC[N+](C)(C)CC(=O)[O-] [oleamidopropyl betaine]
% INHIB. LRAT (LRAT; 100 μM): 0%

Cc1ncc(C[n+]2csc(CCO)c2C)c(N)n1 [thiamine]
% INHIB. ARAT (ARAT; 100 μM): 0%

N[C@@H](Cc1c[nH]c2ccccc12)C(=O)O [tryptophan]
% INHIB. ARAT (ARAT; 100 μM): 0%

O=c1cc[nH]c(=O)[nH]1 [uracil]
% INHIB. ARAT (ARAT; 100 μM): 0%
